Experimental data reported in patent US12435025B2, “Triphenylphosphonium-tethered salicylamine derivatives” (MTI BIOTECH, INC., priority 2019, dated 2025).
Read-outs that look alike come from different tables or passages of the source.

Assays:
[1] = Single ascending dose study: safety and tolerability (adverse events, ECG, vital signs, laboratory parameters); format: in vivo, human
Text: (§1) Healthy male and non-pregnant female volunteers over 18 years of age were eligible to participate. Subjects were not permitted to take any medications 2 weeks prior to or during the study. Exclusion criteria included known cardiac, kidney, or hepatic disease; presence of diseases that could manifest morbidity or symptoms/signs that could confound interpretation of the study results; the need to discontinue any drug administered as standard of care treatment; and the unwillingness or inability to use approved birth-control methods.
(§2) This study was an open-label, single ascending dose study designed to assess pharmacokinetics, safety, and tolerability of single doses of 2-hydroxybenzylamine acetate. A 3+3 clinical trial design with a modified Fibonacci sequence dosing scheme^14 was used with a starting dose of 50 mg; thereafter, dosages were increased to 100, 200, 330, 550, and 825 mg. These doses of 2-hydroxybenzylamine acetate correspond to 34, 68, 136, 224, 373, and 560 mg 2-hydroxybenzylamine. Each dose escalation was initiated only after reviewing safety data from all subjects receiving the previous dose.
(§3) Subjects were admitted to the Vanderbilt University Clinical Research Center and remained on the unit for 24 hours after administering 2-hydroxybenzylamine acetate orally in capsules to participants. […] Subjects were monitored at protocol-defined intervals for 24 hours after administration of 2-hydroxybenzylamine. Safety assessments included vital signs (heart rate, respiration rate, blood pressure, and SpO2), clinical laboratory parameters (blood biochemistry, hematology, and urinalysis), 12-lead ECGs, and potential adverse event assessments. All adverse events were recorded, regardless of whether they were considered study-related.

HepG2 cells = settings: cited from earlier work
[2] = Half-life of SA in the blood; format: in vivo; settings: estimated
γKA protein adducts = settings: compared with PM; cited from earlier work
[3] = Single ascending dose study: plasma pharmacokinetics of 2-hydroxybenzylamine; format: in vivo, human; settings: for Cmax / Tmax / AUC(0-inf) / half-life: both sexes, human, plasma; for AUC(0-inf): read-out: AUC (zero to infinity)
Text: as §1
2-Hydroxybenzylamine (as the acetate salt, CAS 1206675-01-5) was obtained from TSI (China) Co., Ltd. (Shanghai, China). A commercial production lot was used (Lot 16120312). Our laboratory verified the purity of the commercial lot to be >99% via HPLC and NMR spectroscopy. Hard gel capsules (Capsugel, Jiangsu, China) containing 50, 110, and 412.5 mg of 2-hydroxybenzylamine acetate (corresponding to 34, 75, and 281 mg 2-hydroxybenzylamine) were prepared by TSI (China) Co., Ltd. Determinations of average fill weight, uniformity of weight, disintegration, 2-hydroxybenzylamine content, acetate content, and microbial and analytical tests were within all specification limits.
as §2, §3
Blood samples for pharmacokinetic analyses were collected at baseline, 0.25, 0.5, 1, 2, 6, 4, 8, and 24 hours after 2-hydroxybenzylamine acetate administration for all dose levels. The 0.25-hour sample was only collected for dosages≤200 mg, and the 6-h sample was only collected for dosages≥330 mg.
[^2H4]-2-hydroxybenzylamine, prepared by Dr. Venkataraman Amarnath as previously described^11, was used as an internal standard. An internal standard solution (100 ng/mL) of ([^2H4]-2-hydroxybenzylamine was prepared in acetonitrile and added to all standards, quality control samples, and patient samples. Standard and quality control samples of 1 mg/mL 2-hydroxybenzylamine were prepared in water. Eight standard curve samples (5, 10, 20, 100, 200, 1000, 2000, and 5000 ng/mL) were prepared with blank human plasma (Bioreclamation, Westbury, NY). In addition, three quality control samples (15, 300, and 3000 ng/mL) were prepared in blank human plasma. Plasma samples were allowed to thaw at room temperature and then vortexed. Internal standard solution (400 μL) and 100 μL of either plasma, quality controls, or standards were added and mixed in a protein precipitation filter 96-well plate (Phenomenex, Torrance, CA). The solution was eluted into a 96-well plate using a positive pressure manifold and then dried under nitrogen gas at 40° C. The samples were then reconstituted in 97/3 v/v water/acetonitrile with 10 mM ammonium formate for analysis. […]

sodium channel = settings: cited from earlier work
[4] = mice, drinking water, 1 to 10 grams per liter; cited from earlier work
[5] = tested on: paws injected with carrageenan; settings: mice, intraperitoneally 200 mg/kg; cited from earlier work
[6] = in vivo; cited from earlier work
[7] = single oral dose 50 mg 2-hydroxybenzylamine acetate, mean, n = 3
[8] = single oral dose 100 mg 2-hydroxybenzylamine acetate, mean, n = 3

Structure (SMILES): CC(=O)O.NCc1ccccc1O [2-Hydroxybenzylamine acetate, 2-hydroxybenzylamine acetate]
- Abdominal bloating ([1]; both, human, in vivo, 24 h): 1 n (%)
- Any event ([1]; both, human, in vivo, 24 h): 5 n (%)
- Frequent urination ([1]; both, human, in vivo, 24 h): 2 n (%)
- Headache ([1]; both, human, in vivo, 24 h): 1 n (%)
- Itchy throat ([1]; both, human, in vivo, 24 h): 1 n (%)
- Rash ([1]; both, human, in vivo, 24 h): 1 n (%)
- Sleepiness ([1]; both, human, in vivo, 24 h): 1 n (%)

Structure (SMILES): NCc1ccccc1O [2-hydroxybenzylamine]
- serious adverse events or deaths ([1]; all doses): no serious adverse events or deaths
- participants who reported at least 1 adverse event ([1]; both, human, in vivo, 24 h): 28%
- subjects with frequent urination (most common adverse event) ([1]; both, human, in vivo, 24 h): 11%
- adverse event frequency or severity versus dose ([1]; in vivo): no dose-dependent increase
- changes in ECG recordings, vital signs, or laboratory parameters ([1]; in vivo): No clinically significant changes
- intensity of adverse events ([1]; in vivo): mild
- study-related adverse events ([1]; in vivo): No adverse events were determined to be study-related
- protection of HepG2 cells from cytotoxicity induced by hydrogen peroxide (HepG2 cells): protects
- half-life [2]: ~2 h
- inhibition of γKA protein adducts in cells (γKA protein adducts): significantly better inhibitor of γKA protein adducts in cells than PM
- Cmax [3, 7]: 90 ng/mL
- Tmax [3, 7]: 1.33 h
- AUC(0-inf) [3, 7]: 396 ng·h/mL
- half-life ([3]; single oral dose 50 mg 2-hydroxybenzylamine acetate, mean, n = 3, read-out: Half-life (converted)): 2.04 h
- Cmax [3, 8]: 156 ng/mL
- Tmax [3, 8]: 1.33 h
- AUC(0-inf) [3, 8]: 622 ng·h/mL
- half-life ([3]; single oral dose 100 mg 2-hydroxybenzylamine acetate, mean, n = 3, read-out: Half-life (converted)): 2.33 h
- half-life ([3]; single oral doses, overall mean, read-out: mean half-life (converted)): 2.1 h
- AUCextrap [3, 7]: 9.1%
- AUCextrap [3, 8]: 11.2%
- Cmax and AUC versus dose ([3]; single oral doses 50-825 mg 2-hydroxybenzylamine acetate): dose-dependent changes
- protection of sodium channel function inhibited by γKA or oxidants (sodium channel): protects
- tissue concentrations [4]: 10 to 500 µM
- edema in paws injected with carrageenan [5]: decreased edema

Structure (SMILES): Cc1ncc(CO)c(CN)c1O [PM, pyridoxamine]
- protection of HepG2 cells from cytotoxicity induced by hydrogen peroxide (HepG2 cells): ineffective

Structure (SMILES): O=C(O)c1ccccc1O [salicylic acid]
- salicylate in the blood bound to protein [6]: 80-90%
